According to ChEMBL document CHEMBL3217435, “Unfolded and macrocyclic ammonium derivatives of diterpenoids steviol and isosteviol having choline moieties. Synthesis and inhibitory activities toward acetylcholine- and butyrylcholinesterases” (Medchemcomm, 2012):

How the values were obtained:
Acetylcholinesterase = Acetylcholinesterase (Homo sapiens, UniProt P22303); assay: Inhibition of human erythrocyte AChE using acetylthiocholine iodide as substrate by visible spectrophotometry
Cholinesterase = Cholinesterase (Homo sapiens, UniProt P06276); assay: Inhibition of human serum BChE using butyrylthiocholine iodide as substrate by visible spectrophotometry
Cholinesterase, sequence (P06276 whole entry): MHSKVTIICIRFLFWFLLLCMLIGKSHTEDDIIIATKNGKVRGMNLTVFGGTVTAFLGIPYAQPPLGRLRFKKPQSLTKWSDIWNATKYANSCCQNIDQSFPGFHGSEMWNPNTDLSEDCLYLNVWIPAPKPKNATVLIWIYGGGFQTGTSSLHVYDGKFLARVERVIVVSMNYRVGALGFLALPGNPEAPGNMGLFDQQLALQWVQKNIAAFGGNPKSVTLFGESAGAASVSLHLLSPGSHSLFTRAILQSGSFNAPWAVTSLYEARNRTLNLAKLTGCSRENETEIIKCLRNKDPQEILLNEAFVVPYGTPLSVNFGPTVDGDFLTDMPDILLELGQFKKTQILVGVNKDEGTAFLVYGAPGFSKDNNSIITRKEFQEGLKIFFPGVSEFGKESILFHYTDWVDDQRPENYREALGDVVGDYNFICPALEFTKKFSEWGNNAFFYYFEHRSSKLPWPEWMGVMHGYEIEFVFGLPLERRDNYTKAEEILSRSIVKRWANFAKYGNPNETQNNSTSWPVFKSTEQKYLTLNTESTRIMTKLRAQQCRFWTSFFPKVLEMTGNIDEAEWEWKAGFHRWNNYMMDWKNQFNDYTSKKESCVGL

Acetylcholinesterase, sequence (P22303 whole entry): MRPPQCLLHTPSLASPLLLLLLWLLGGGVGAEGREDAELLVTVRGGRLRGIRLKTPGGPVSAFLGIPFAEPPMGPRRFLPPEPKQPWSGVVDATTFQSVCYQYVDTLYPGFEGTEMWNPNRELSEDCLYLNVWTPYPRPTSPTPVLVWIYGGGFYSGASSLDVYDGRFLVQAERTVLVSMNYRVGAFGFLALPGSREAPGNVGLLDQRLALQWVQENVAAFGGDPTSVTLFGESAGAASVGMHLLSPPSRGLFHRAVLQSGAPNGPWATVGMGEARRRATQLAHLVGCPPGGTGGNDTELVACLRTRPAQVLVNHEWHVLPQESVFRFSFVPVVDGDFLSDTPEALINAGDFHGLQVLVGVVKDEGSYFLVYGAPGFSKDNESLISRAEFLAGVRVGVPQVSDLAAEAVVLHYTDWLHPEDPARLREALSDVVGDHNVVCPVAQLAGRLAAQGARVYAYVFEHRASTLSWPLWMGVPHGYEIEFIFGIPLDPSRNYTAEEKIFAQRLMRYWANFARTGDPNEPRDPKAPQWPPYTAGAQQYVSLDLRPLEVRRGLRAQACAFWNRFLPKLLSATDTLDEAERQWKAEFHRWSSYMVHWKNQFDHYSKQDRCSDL

Row | Compound | IC50 (Acetylcholinesterase) | IC50 (Cholinesterase)
1 | C[C@@]12CC[C@@H]3[C@@](CC[C@H]4[C@@]3(C)CCC[C@@]4(C)C(=O)OCC[N+](C)(C)CCCCCCCCCC[N+](C)(C)CCOC(=O)[C@]3(C)CCC[C@@]4(C)[C@@H]5CC[C@@]6(C)C[C@]5(CC[C@@H]43)CC6=O)(CC1=O)C2 | 88 µM | 65 µM
2 | C[C@@]12CC[C@@H]3[C@]4(CC[C@H]5[C@@]3(C)CCC[C@@]5(C)C(=O)OCC[N+](C)(C)CCCCCCCCC[N+](C)(C)CCOC(=O)[C@]3(C)CCC[C@@]5(C)[C@@H]6CC[C@@]7(C)C[C@]6(CC[C@@H]53)C[C@H]7OC(=O)CCCCCCCCC(=O)O[C@@H]1C4)C2 | 5 µM | 60 µM
3 | C[C@H]1C[C@@]23CC[C@H]4[C@@](C)(CCC[C@@]4(C)C(=O)OCC[N+](C)(C)Cc4ccccc4)[C@@H]2CC[C@]1(Cl)C3 | 9 µM | 1.6 µM
4 | CC[N+](CC)(CC)CCOCCOCCOC(=O)[C@]1(C)CCC[C@@]2(C)[C@@H]3CC[C@@]4(C)C[C@]3(CC[C@@H]21)CC4=O | 80 µM | > 1000 µM
5 | C[C@H]1C[C@@]23CC[C@H]4[C@@](C)(CCC[C@@]4(C)C(=O)OCC[N+](C)(C)C)[C@@H]2CC[C@]1(Cl)C3 | 34 µM | 4.2 µM
6 | C[C@@]12CC[C@@H]3[C@@](CC[C@H]4[C@@]3(C)CCC[C@@]4(C)C(=O)OCC[N+](C)(C)Cc3ccccc3)(CC1=O)C2 | 30 µM | 6.7 µM
7 | C[C@@]12CC[C@@H]3[C@@](CC[C@H]4[C@@]3(C)CCC[C@@]4(C)C(=O)OCC[N+](C)(C)C)(CC1=O)C2 | 150 µM | 30 µM
8 | C[C@@]12CC[C@@H]3[C@@](CC[C@H]4[C@@]3(C)CCC[C@@]4(C)C(=O)OCC[N+](C)(C)CCCCCCCCCCCC[N+](C)(C)CCOC(=O)[C@]3(C)CCC[C@@]4(C)[C@@H]5CC[C@@]6(C)C[C@]5(CC[C@@H]43)CC6=O)(CC1=O)C2 | 2.2 µM | 10 µM
